The values below come from PubChem BioAssay (NCI).

Several values for one entry are separate records, joined by “and”; a condition that tells them apart may be missing. Equal entries are not always repeated.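 48-hour exposure; five concentrations; linearly interpolated endpoints. Here, GI50 denotes the concentration required for 50% inhibition of growth. TGI is the concentration that stops growth completely.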

This assay relates to MDA-MB-468 breast. Nature of the assay: NCI-60 cell line screen, 48 h.
`C#Cc1nc(Nc2cc(C)[nH]n2)c2ccccc2n1`: the GI50 is 0.184 µM and the TGI is 0.45 µM.
As for `CC1(C)N=C(N)N=C(N)N1c1ccc(CCCCc2ccc(Cl)c(S(=O)(=O)F)c2)c(Cl)c1`, the GI50 is 2.51 µM and the TGI amounted to 16.4 µM.
Regarding `NCCc1cc(O)c(O)cc1O`, the GI50 is 20.7 µM and the TGI is 97.8 µM.
With `Cc1ccc2c(C3C(C#N)=C(N)Oc4cc5ccccc5cc43)cc(=O)oc2c1` (stereo not drawn), the GI50 is 0.925 µM and the TGI was determined as 67.1 µM.
For the compound `Nc1ccn(C2OC(CO)C(O)C2O)c(=O)n1` (stereo not drawn), the GI50 was > 61.1 µM and the TGI is > 100 µM.
With `COc1ccc(-c2nnc(N3CCN(C(=O)CN4CCN(c5ccccc5)CC4)CC3)nc2-c2ccc(OC)cc2)cc1`, the GI50 was 8.31 µM and the TGI was > 100 µM.
In the case of `CC1CCN(C(=O)OCc2nc3nc(Cl)nc(N4CCOCC4)c3[nH]2)CC1`, the GI50 was 0.715 µM and the TGI amounted to 2.37 µM.
Taken in the same sequence, the figures for `COc1cc(C2CC(c3cccc(Nc4ccncc4)c3)=NN2c2ccc(Cl)cc2)cc(OC)c1OC` (stereo not drawn) were 1.63 µM and 3.45 µM.
Consider `O=[N+]([O-])c1cccc2ccc(N/N=C/c3ccccc3O)nc12`, for which the GI50 is 0.676 µM and the TGI is > 100 µM.
For the compound `CN1CC[C@@H](c2c(O)cc(O)c3c(=O)cc(-c4ccc(C(F)(F)F)cc4Cl)oc23)[C@@H]1CO`, the GI50 was 12.2 µM and the TGI was found to be 29.6 µM.
For `Nc1c(C(=O)c2ccccc2)cnn1-c1ccc(F)cc1`, the GI50 is > 25 µM and the TGI was > 25 µM.
Consider `O=C(NNc1ccccc1)C(=O)NNc1ccccc1`, for which the GI50 is > 100 µM and the TGI is > 100 µM.
Turning to `COc1cc(/C=C/C(=O)c2cccc(-n3cc(-c4ccc(Cl)cc4)[nH]c3=O)c2)ccc1O`, the GI50 was 3.12 µM and the TGI was 19.2 µM.
In the same order, the values of `C=COC(=O)N[C@H]1CCc2cc(OC)c(OC)c(OC)c2-c2ccc(SC)c(=O)cc21` are < 0.01 µM and > 100 µM.
For `COc1ccc(-c2cc(/C=C/C(=O)c3ccc(OC)c(OC)c3)[nH]n2)cc1`, the GI50 was 1.22 µM and the TGI was found to be 2.94 µM.
Consider `CC(C(=O)O)c1cccc(Oc2ccccc2)c1` (stereo not drawn), for which the GI50 was > 100 µM and the TGI was > 100 µM.
As to `CCOC(=O)c1c(-c2ccc(OC)cc2)c(C#N)c2c(C#N)c(N)nn2c1N`, the GI50 is 2.08 µM and the TGI came to 6.86 µM.
Consider `COc1ccccc1Nc1ncc(-c2ccccc2)o1`, for which the GI50 was 3.02 µM and the TGI was > 25 µM.
Turning to `Cn1c(Nc2ccc(C(F)(F)F)cc2)nc2cc(Oc3ccnc(-c4ncc(C(F)(F)F)[nH]4)c3)ccc21`, the GI50 is 0.127 µM and the TGI worked out at 11.4 µM.
`O=[N+]([O-])c1ccc(CI)cc1`: the GI50 is 1.71 µM and the TGI came out at 4.09 µM.
Take `COc1ccc(-c2nsc3c2NC(=O)CC3c2cccc(OC)c2)cc1` (stereo not drawn): the GI50 is 0.395 µM and the TGI worked out at 3.97 µM.
Consider `CSc1nc(NC2OC(COC(C)=O)C(OC(C)=O)C(OC(C)=O)C2OC(C)=O)c(N=CC=Nc2c(NC3OC(COC(C)=O)C(OC(C)=O)C(OC(C)=O)C3OC(C)=O)nc(SC)n(C)c2=O)c(=O)n1C` (stereo not drawn), for which the GI50 was 39.4 µM and the TGI was 50 µM.
As to `O=C1c2cccc3cccc(c23)C(=O)N1CCCCCN1CCN(CCCCCOc2ccc(-c3nc4ccc(N5CCOCC5)cc4[nH]3)cc2)CC1`, the GI50 was 20.3 µM and the TGI worked out at 34.6 µM.
For `COC(=O)c1ccc2c(c1)/C(=C\c1cc(Br)c(O)c(Br)c1)C(=O)N2`, the GI50 was 6.09 µM and the TGI is > 22 µM.
On to `Cc1cc(N(CCCNc2ccnc3cc(Cl)ccc23)Cc2ccc3c(c2)OCO3)nc(N2CCOCC2)n1`, for which the GI50 was 0.202 µM and the TGI is 0.562 µM.
Consider `O=C1c2cc3c(cc2-c2c1c1cc(Cl)c(Cl)cc1c(=O)n2C[C@H](O)CO)OCO3`, for which the GI50 is < 0.01 µM and the TGI was 0.0305 µM.
Regarding `CC(C)OC(=O)[C@H](C)NP(=O)(OC[C@H]1O[C@@H](n2ccc(=O)[nH]c2=O)[C@](C)(F)[C@@H]1O)Oc1ccccc1` (stereo partly drawn), the GI50 is > 100 µM and the TGI was > 100 µM.
In the case of `Cn1cc(-c2csc(-c3c[nH]c4ccc(Br)cc34)n2)c2cnccc21`, the GI50 is 1.68 µM and the TGI was determined as 3.56 µM.
On to `CCN(Cc1ccc(F)cc1)c1ccc(CO)c(Br)c1`, for which the GI50 was 0.0224 µM and the TGI was determined as 0.0608 µM.
On to `CN(C)CCC(=O)C(=Cc1ccc(O)cc1)C(=O)CCN(C)C`, for which the GI50 is 26.8 µM and the TGI worked out at 75.2 µM.
As for `Cc1nc2cc(Nc3nc(Nc4ccc(F)cc4)nc(-c4cccs4)n3)ccc2n1Cc1ccccc1`, the GI50 is 3.62 µM and the TGI turned out to be 35.4 µM.
As for `CN(C)C/C=C/C(=O)Nc1cc2c(Nc3ccc(F)c(Cl)c3)ncnc2cc1O[C@H]1CCOC1`, the GI50 is < 0.01 µM and 0.00112 µM; the TGI was 0.01 µM and 0.0067 µM.
In the case of `CN(C)c1ccc(N=Nc2ccccn2)c(O)c1`, the GI50 is 0.204 µM and the TGI came out at 0.912 µM.
On to `Nc1ncc(-c2ccc3ncnc(N4CCc5cc(F)c(Cl)cc54)c3c2)cc1CO`, for which the GI50 is 0.236 µM and the TGI worked out at 0.933 µM.
As to `O=C1CCC/C=C\C[C@H]2C=CC(=O)/C2=C/C[C@H](C/C=C\CC(F)(F)F)O1`, the GI50 is 0.521 µM and the TGI came to 2.51 µM.
In the same order, the values of `C[C@H](Nc1cc(Cl)nc2c1cnn2[C@@H]1O[C@H](COP(=O)(O)CP(=O)(O)O)[C@@H](O)[C@H]1O)c1ccccc1F` are > 100 µM and > 100 µM.
Take `COc1cccc2c1C(=O)c1c(O)c3c(c(O)c1C2=O)C[C@@](O)(/C(C)=N/NC(=O)c1ccc(Cl)cc1)C[C@@H]3OC1CC(N)C(O)C(C)O1` (stereo partly drawn): the GI50 was 0.174 µM and the TGI amounted to 0.495 µM.
`Clc1nc(Cl)nc(Nc2cccc3ccccc23)n1`: the GI50 is 52.1 µM and the TGI is > 100 µM.
For the compound `CS(=O)(=O)Nc1cc(-c2ccc3ncnc(Nc4c(Cl)ccc5c4OCO5)c3c2)cnc1Cl`, the GI50 is 0.128 µM and the TGI stood at 0.454 µM.
Take `Cc1ccc(Nc2oc(-c3ccccc3)nc2[P+](c2ccccc2)(c2ccccc2)c2ccccc2)cc1`: the GI50 was 0.266 µM and the TGI is 0.895 µM.
With `CCc1ccc(/C=C/c2ccc(O)c3ncccc23)[n+](C)c1`, the GI50 was 0.539 µM and the TGI was > 36.5 µM.
For `CC(C)=CCc1cc(O)cc2c1OC(C=C(C)C)C1=C2C(=O)C2=C(C1=O)S(=O)(=O)CCN2` (stereo not drawn), the GI50 was 2.68 µM and the TGI was 8.24 µM.
For the compound `COc1ccc(C(O)(CCC(C)C)C(CN2CCOCC2)c2ccc(Cl)cc2)cc1` (stereo not drawn), the GI50 is 7.43 µM and the TGI came to 23.4 µM.
Consider `O=S(=O)(Nc1ccc(Cl)cc1Cl)c1ccc(-c2cnc(C3CC3)o2)cc1`, for which the GI50 was 0.339 µM and the TGI was 2.9 µM.
On to `BrCc1cccc(C[P+](c2ccccc2)(c2ccccc2)c2ccccc2)c1`, for which the GI50 is 2.25 µM and the TGI turned out to be 8.36 µM.
In the same order, the values of `COc1cc(/C=C\c2cc(OC)c(OC)c(OC)c2)cc(N/C=C\C(=O)c2cc(OC)c(OC)c(OC)c2)c1OC` are 1.88 µM and 6.34 µM.
Consider `O=[P@@]1(c2ccccc2)O[C@H](COCc2ccccc2)[C@@H](OCc2ccccc2)[C@H](OCc2ccccc2)[C@H]1NCc1ccccc1`, for which the GI50 is 3.06 µM and the TGI was found to be 12.6 µM.
Regarding `Cn1c(=O)c(Oc2ccc(F)cc2)cc2cnc(NC3CCOCC3)nc21`, the GI50 is > 25 µM and the TGI was > 25 µM.
`CN(C)C(=S)Sc1ccc([N+](=O)[O-])cc1[N+](=O)[O-]`: the GI50 was 2.12 µM and the TGI turned out to be 5.78 µM.
